Holding throughout (format): biochemical
One experiment has as its target T1, ALK(h) (Homo sapiens, UniProt Q9UM73).
T1 construct: purchased Eurofins, Dundee, Scotland
Nature of the experiment: kinase profile, radiometric assay, ALK. How it is done:
(§1) Enzymatic biochemical activities were evaluated in radiometric protein kinase assays (Eurofins, Dundee, Scotland). Kinases are incubated with buffer, substrate and [γ-^33P]-ATP (specific activity approx. 500 cpm/pmol, concentration as required). The reaction is initiated by the addition of the MgATP mix. After incubation for 40 minutes at room temperature, the reaction is stopped by the addition of 3% phosphoric acid solution. 10 μL of the reaction is then spotted onto a P30 filtermat and washed three times for 5 minutes in 75 mM phosphoric acid and once in methanol prior to drying and scintillation counting.
(§2) All compounds are prepared to 50× final assay concentration in 100% DMSO. Positive control wells contain all components of the reaction with 2% DMSO. Blank wells contain all components of the reaction, with a reference inhibitor replacing the compound of interest. Each kinase is assigned a standard assay concentration of ATP within 20 μM of its apparent KM. Compounds were screened at 1 μM in duplicate or tested at 10 concentrations at half log dilution starting from 10 μM in singlicate. Dose response curves were fitted with four parameter logistic curve to obtain IC50 values. The average coefficient of variation (CV) of the conducted assay is 4.4%.

The target in the next experiment is T2, IKKβ(h) (Homo sapiens, UniProt O14920).
T2 construct: purchased Eurofins, Dundee, Scotland
T2 sequence (O14920 1-756): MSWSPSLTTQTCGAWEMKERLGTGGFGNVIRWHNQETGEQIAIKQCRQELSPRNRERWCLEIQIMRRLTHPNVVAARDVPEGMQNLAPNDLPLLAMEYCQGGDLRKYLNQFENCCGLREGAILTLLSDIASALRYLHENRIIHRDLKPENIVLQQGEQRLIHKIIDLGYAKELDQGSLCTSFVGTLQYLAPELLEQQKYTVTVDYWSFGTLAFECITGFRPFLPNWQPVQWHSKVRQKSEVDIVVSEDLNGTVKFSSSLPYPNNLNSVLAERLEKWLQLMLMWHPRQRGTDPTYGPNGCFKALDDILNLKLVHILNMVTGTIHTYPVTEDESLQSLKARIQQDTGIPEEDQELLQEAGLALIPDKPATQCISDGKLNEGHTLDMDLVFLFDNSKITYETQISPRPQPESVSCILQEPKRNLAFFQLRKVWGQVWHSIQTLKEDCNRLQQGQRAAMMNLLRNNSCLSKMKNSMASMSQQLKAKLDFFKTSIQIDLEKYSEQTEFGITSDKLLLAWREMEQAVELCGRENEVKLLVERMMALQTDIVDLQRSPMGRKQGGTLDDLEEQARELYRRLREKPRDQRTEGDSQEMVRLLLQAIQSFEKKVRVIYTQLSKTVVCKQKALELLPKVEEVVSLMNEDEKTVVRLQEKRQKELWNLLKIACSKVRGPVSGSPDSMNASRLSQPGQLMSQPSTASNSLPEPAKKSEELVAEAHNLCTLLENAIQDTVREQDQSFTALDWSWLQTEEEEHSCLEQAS
As to the kind of experiment: kinase profile, radiometric assay, IKKβ. Here is the method:
as §1, §2

A further experiment has as its target T3, JAK3(h) (Homo sapiens, UniProt P52333).
T3 construct: purchased Eurofins, Dundee, Scotland
T3 sequence (P52333 1-1124): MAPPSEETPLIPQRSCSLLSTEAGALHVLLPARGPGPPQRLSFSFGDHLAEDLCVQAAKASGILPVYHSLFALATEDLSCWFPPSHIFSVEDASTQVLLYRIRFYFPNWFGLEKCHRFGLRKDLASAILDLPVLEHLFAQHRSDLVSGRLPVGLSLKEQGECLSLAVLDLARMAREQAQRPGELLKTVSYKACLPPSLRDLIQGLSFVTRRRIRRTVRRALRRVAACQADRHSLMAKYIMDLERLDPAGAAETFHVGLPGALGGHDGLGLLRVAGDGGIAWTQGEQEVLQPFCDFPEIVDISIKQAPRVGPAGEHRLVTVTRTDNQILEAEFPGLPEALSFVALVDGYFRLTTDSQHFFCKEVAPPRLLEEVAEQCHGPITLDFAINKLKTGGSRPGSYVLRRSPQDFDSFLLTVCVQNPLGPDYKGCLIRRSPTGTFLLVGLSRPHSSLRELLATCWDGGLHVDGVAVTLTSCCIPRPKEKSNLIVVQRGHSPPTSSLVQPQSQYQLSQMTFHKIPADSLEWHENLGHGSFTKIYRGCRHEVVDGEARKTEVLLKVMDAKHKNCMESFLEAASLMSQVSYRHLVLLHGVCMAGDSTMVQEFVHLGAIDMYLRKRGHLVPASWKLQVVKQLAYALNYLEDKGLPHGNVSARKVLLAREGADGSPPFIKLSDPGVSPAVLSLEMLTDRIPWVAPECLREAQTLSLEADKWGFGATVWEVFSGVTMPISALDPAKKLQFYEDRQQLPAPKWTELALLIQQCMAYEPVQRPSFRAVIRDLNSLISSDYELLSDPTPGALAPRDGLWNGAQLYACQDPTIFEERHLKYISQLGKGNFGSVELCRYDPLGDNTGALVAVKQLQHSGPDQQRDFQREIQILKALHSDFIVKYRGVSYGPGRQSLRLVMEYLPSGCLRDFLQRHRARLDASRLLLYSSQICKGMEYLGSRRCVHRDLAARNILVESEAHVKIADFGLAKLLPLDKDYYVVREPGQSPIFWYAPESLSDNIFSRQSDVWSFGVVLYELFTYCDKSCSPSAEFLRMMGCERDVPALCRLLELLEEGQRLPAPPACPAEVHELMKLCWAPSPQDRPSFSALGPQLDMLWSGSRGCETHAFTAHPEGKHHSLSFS
Nature of the experiment: kinase profile, radiometric assay, JAK3. Here is the method:
as §1, §2

In a further experiment the target is T4, KDR(h) (Homo sapiens, UniProt P35968).
T4 construct: purchased Eurofins, Dundee, Scotland
As to the kind of experiment: kinase profile, radiometric assay, KDR. Here is the method: as §1, §2

T4 sequence (P35968 20-1356): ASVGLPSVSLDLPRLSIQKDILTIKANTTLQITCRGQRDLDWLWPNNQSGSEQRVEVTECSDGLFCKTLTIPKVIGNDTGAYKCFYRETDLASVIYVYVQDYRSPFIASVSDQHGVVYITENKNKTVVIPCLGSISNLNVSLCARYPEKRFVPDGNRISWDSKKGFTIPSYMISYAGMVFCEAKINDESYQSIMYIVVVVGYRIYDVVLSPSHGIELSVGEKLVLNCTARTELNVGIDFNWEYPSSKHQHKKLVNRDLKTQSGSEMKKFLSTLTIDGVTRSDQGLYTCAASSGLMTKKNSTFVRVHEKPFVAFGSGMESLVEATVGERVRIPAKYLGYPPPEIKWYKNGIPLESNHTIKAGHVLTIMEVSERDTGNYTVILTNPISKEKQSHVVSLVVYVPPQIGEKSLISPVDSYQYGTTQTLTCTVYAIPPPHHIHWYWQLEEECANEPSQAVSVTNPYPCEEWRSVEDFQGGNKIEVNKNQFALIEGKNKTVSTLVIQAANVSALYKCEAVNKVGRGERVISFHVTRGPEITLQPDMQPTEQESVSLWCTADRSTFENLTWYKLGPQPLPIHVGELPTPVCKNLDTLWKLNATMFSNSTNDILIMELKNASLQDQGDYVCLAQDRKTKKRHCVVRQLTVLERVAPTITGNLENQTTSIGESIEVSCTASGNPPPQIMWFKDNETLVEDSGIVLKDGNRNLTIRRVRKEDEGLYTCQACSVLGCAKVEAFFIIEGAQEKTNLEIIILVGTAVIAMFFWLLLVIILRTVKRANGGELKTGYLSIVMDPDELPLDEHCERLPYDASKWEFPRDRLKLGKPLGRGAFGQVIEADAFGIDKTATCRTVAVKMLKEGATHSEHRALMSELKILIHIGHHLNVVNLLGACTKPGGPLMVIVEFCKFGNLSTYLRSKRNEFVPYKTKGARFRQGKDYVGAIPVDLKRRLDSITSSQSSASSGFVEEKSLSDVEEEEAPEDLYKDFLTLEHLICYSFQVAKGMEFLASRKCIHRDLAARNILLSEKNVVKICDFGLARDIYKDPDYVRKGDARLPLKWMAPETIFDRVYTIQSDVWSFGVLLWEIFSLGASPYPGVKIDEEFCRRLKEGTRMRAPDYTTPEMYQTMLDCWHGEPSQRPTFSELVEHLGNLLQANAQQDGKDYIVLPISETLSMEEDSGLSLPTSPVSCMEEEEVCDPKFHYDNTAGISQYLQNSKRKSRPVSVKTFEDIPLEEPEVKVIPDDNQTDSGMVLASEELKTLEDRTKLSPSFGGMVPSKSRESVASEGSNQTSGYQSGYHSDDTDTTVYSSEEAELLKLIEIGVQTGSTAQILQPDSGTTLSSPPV
T1 sequence (Q9UM73 19-1620): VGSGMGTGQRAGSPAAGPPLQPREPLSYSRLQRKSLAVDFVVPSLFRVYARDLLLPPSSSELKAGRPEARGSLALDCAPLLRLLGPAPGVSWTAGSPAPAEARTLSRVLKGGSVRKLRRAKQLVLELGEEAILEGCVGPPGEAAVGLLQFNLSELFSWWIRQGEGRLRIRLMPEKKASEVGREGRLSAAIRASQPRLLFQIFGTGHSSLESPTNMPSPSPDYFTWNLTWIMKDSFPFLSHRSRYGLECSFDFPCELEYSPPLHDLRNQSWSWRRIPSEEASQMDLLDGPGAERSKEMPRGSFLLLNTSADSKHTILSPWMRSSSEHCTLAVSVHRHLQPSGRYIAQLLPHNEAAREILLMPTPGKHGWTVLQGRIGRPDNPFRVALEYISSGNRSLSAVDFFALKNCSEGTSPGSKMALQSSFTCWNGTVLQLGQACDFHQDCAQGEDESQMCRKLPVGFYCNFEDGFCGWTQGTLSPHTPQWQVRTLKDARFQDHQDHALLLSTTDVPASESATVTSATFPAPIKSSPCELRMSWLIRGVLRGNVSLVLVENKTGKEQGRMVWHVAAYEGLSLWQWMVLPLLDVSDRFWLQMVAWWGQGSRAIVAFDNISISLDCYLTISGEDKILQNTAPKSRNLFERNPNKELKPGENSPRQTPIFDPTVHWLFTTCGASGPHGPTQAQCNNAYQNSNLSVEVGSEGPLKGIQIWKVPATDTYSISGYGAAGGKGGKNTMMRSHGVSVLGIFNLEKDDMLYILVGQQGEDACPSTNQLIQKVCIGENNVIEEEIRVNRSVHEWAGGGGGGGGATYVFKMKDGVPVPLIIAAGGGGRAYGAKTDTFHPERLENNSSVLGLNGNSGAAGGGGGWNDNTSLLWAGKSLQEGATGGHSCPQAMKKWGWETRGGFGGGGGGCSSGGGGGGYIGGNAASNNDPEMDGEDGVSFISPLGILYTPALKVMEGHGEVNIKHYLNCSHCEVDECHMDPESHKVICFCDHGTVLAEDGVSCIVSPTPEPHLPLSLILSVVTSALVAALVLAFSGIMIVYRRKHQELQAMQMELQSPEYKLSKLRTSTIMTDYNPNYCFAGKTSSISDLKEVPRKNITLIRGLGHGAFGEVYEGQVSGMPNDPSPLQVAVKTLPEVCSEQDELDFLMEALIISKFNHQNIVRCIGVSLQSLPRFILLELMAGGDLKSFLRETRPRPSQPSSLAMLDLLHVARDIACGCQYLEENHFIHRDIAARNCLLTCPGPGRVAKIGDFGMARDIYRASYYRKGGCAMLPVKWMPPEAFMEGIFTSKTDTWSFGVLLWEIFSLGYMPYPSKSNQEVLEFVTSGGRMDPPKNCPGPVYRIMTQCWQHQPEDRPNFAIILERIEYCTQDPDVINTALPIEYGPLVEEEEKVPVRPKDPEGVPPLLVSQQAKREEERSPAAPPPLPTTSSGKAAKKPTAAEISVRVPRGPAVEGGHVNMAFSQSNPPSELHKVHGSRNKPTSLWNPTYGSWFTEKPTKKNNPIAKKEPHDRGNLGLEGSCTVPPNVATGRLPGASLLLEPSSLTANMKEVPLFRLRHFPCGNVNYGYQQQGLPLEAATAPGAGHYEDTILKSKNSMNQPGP

Consider `CC(C)n1cnc2c(Nc3cccc(Cl)c3)nc(N[C@@H]3CCCC[C@@H]3N)nc21` [Compound 9, N^2-((1R,2S)-2-Aminocyclohexyl)-N^6-(3-Chlorophenyl)-9-Isopropyl-9H-Purine-2,6-Diamine], for which the inhibition (commonly the relative decrease from the control value, in per cent) at 1 µM on ALK(h) is -2%; against IKKβ(h), -5%; at JAK3(h), 4%; against KDR(h), -6%.
Take `CC(C)n1cnc2c(Nc3cc(N)cc(Cl)c3)nc(NC3CCCCC3N)nc21` (racemic) [Compound 14, Racemic N^6-Cis-(3-Amino-5-Chlorophenyl)-N^2-(2-Aminocyclohexyl)-9-Isopropyl-9H-Purine-2,6-Diamine]: the inhibition at 1 µM at ALK(h) was 10%; against IKKβ(h) it was -9%; on JAK3(h), 0%; against KDR(h) it was 4%.
Consider `CC(C)n1cnc2c(Nc3cccc(Cl)c3)nc(N[C@H]3CCCC[C@@H]3N)nc21` [Compound 8, N^2-((1S,2S)-2-Aminocyclohexyl)-V-(3-Chlorophenyl)-9-Isopropyl-9H-Purine-2,6-Diamine], for which the inhibition at 1 µM on ALK(h) was 7%; against IKKβ(h), -2%; on JAK3(h), 0%; against KDR(h), 16%.

Values taken from patent US10722515B2, “Dual CLK/CDK1 inhibitors for cancer treatment” (SRI INTERNATIONAL, priority 2016, dated 2020).
